Legend:
TMAO production in vivo = system: TMAO production in vivo; set-up: method as in PMID 30082863; conditions: cited from earlier work
choline transporters = system: choline transporters; set-up: method as in PMID 33271015; conditions: read-out: IC50 of choline transport in human cells that overexpress choline transporters; cited from earlier work
[1] = system: Hungatella hathewayi cultures; set-up: method as in PMID 31059309; conditions: cited from earlier work
[2] = system: Proteus mirabilis lysates; set-up: method as in PMID 30082863; conditions: read-out: IC50 against Proteus mirabilis lysates; cited from earlier work
[3] = cited from earlier work
[4] = system: high affinity choline transporter (HAChT), choline transport in rat synaptosomes; set-up: method as in PMID 2066974; conditions: cited from earlier work
E. coli MS 200-1 = assay: Growth inhibition of E. coli cultures in choline- and glycerol-containing minimal media; type: cell-based, Escherichia coli MS 200-1
Experimental: To validate the potential hits from the HTS, we tested the 178 compounds for inhibition of growth of E. coli MS 200-1 in glycerol minimal media at 30 µg/mL, following up with those without activity. […]. We then determined EC50 values for inhibition of TMA production from choline by bacterial cultures incubated with [trimethyl-d9]choline in phosphate-buffered saline. Of the 178 compounds tested in both growth and TMA inhibition assays, 20 inhibited TMA generation by E. coli MS 200-1 without growth-inhibitory effects in glycerol minimal medium.
NCE media was adapted based on the “no carbon E” media as previously described ([14]), and contains 29 mM potassium phosphate monobasic, 29 mM potassium phosphate dibasic, 17 mM ammonium sodium phosphate dibasic, 40 mM sodium fumarate dibasic, 0.1% (wt/vol) casamino acids, and either 20 mM choline chloride or 3 g/L glycerol. This mixture was supplemented with 1 mM magnesium sulfate, 1% ATCC vitamin supplement, and 1% ATCC trace mineral supplement.

[5] = system: choline transport into ∆cutC E. coli MS 200-1 cells; assay: [14C]-choline uptake; type: cell-based, Escherichia coli MS 200-1 ∆cutC; conditions: 10 µM
Experimental: The ∆cutC strain of E. coli was used in this assay to prevent the formation of volatile radioactive TMA. When cells were grown aerobically, incubation with compound 42 increased choline uptake by 15 times compared to vehicle treatment (Fig. S2B).
E. coli MS 200-1 ∆cutC was grown either aerobically or anaerobically in LB medium supplemented with 1 mM choline chloride. Cells were pelleted and resuspended in fresh PBS after overnight growth to OD600 of 1 and aliquoted into microcentrifuge tubes. […] 5 µM [^14C] choline was added to the cells and left to incubate for 15 mins aerobically. At the end of the incubation period, cells were washed with PBS three times by centrifugation at 3,000 × g for 5 min and resuspended in equal volume of PBS. The resulting cell resuspension in PBS was transferred to a scintillation vial, where 10 mL of liquid scintillation cocktail was added and mixed. Radioactivity was counted using a Beckman Coulter LS6000 liquid scintillation counter for 1 min per sample.

[6] = system: cut gene cluster expression in E. coli MS 200-1; assay: Transcription of the cut gene cluster after choline induction (Nanostring nCounter); conditions: 10 µM, NCE glycerol, 1 mM choline induction, 1.5 h
[7] = biological target: T1, purified CutC (choline trimethylamine-lyase) (Oleidesulfovibrio alaskensis, UniProt Q30W70); assay: In vitro CutC activity assay coupled to YADH/NADH (absorbance 340 nm); type: biochemical, Desulfovibrio desulfuricans G20; conditions: 5 nM CutC, 200 µM choline, 20°C, anaerobic
T1 construct: made in house
T1 sequence (Q30W70 53-846): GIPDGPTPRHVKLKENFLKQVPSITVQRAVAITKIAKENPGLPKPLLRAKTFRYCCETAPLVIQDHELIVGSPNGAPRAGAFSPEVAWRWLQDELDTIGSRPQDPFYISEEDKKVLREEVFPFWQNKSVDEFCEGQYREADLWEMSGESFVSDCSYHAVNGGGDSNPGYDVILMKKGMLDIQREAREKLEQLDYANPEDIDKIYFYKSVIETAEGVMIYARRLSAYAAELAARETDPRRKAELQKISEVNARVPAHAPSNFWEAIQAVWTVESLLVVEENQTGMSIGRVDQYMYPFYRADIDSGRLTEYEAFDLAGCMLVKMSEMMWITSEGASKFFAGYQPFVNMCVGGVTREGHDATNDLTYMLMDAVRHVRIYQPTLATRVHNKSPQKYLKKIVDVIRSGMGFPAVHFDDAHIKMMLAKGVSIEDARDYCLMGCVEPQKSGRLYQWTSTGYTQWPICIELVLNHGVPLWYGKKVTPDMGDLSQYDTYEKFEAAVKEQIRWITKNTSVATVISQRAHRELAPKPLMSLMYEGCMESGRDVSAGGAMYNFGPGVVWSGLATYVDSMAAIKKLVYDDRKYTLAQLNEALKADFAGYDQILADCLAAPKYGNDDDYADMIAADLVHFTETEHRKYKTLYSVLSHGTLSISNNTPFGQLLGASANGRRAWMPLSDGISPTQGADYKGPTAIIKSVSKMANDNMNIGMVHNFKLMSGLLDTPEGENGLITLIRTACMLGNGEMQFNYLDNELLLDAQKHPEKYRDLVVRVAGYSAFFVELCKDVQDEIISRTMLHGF
Experimental: To investigate if our compounds were inhibiting CutC directly, we tested their activity toward the purified enzyme. The activity of CutC was determined using a coupled enzyme assay, where the acetaldehyde product from the cleavage of choline to TMA is reduced to ethanol by yeast alcohol dehydrogenase (YADH) using nicotinamide adenine dinucleotide (NADH) as a cofactor. The consumption of NADH results in a change in absorption at 340 nm, and this rate of change of absorption was used to calculate the initial rates of reaction of CutC in the presence of varying concentrations of inhibitors ([14], [65]).
CutC and CutD enzymes from Desulfovibrio desulfuricans G20 were purified, CutC was activated by incubation with CutD, and the amount of glycyl radical installation was quantified as previously described ([15]). The IC50 of compounds was determined in an in vitro CutC activity assay, where CutC activity is coupled to the NADH-dependent enzymatic reduction of acetaldehyde by YADH ([15]). Briefly, assays were conducted in an anaerobic chamber (MBraun) under N2 atmosphere at 20°C. In 50 mM potassium phosphate buffer (pH 8.0, 50 mM KCl), 40 µM of CutD and 150 µM of sodium dithionite were incubated for 20 min before the addition of 200 µM of SAM and 20 µM of CutC monomer. The mixture was incubated for 1 h to activate the glycyl radical enzyme, after which the activated CutC mixture was diluted […] in 50 mM potassium phosphate buffer (pH 8.0, 50 mM KCl). A master mix containing 200 µM NADH, 0.4 µM YADH (Sigma), and the diluted CutC mixture (5 nM final concentration in assay) was prepared and aliquoted into 96-well plates (180 µL per well). Ten microliters of inhibitor or DMSO vehicle was added, followed by 10 µL of aqueous choline chloride solution (final concentration 200 µM). Absorbance was measured at 340 nm immediately after addition of all assay components, with measurements taken every 20 s for 10 min. Initial rates were calculated from absorbance measurements and fitted to Michaelis–Menten equation using nonlinear regression in GraphPad Prism 10 (v. 10.4.0). Background activity was subtracted using no substrate controls, and initial rates for each inhibitor concentration were normalized to no inhibitor controls. IC50 values were obtained by plotting normalized activity values against the logarithm of inhibitor concentration and fitting to a nonlinear regression model in GraphPad Prism 10 (v. 10.4.0).

In the case of `C[N+](C)(CF)CCO` [FMC, fluoromethylcholine], the “EC50 of inhibition of TMAO production in vivo” value (TMAO production in vivo) is listed as 3.4 mg/kg.

For `C[N+](C)(CCO)CCCCCCOc1cccc(I)c1` [Compound 4], the IC50 (choline transporters) is given as 44 nM and the IC50 [1] is given as 15000 nM.

In the case of `C[N+](C)(CI)CCO` [IMC, Iodomethylcholine], the IC50 [2] is listed as 1.5 nM, the “Concentration in mice cecum and colon samples” value ([3]; dosed at 100 mg/kg, after 24 h) is listed as “around 6 mM” and the “Level of inhibitor and its metabolite iodomethylbetaine in serum” value ([3]; mouse, in vivo) is listed as “low micromolar levels”. For the same compound, the “EC50 of inhibition of TMAO production in vivo” value (TMAO production in vivo) was 45 mg/kg and the IC50 [4] was 490 nM.

In the case of `Cc1ccc(-c2cc(C(=O)NCCCN3CCCCCC3)c(C)[nH]2)cc1C` [Compound 42], the “Inhibition of E. coli growth on choline” value (E. coli MS 200-1; choline minimal medium, 7 h, 6: 125–500 µM, 42: 30–100 µM) is reported as “dose-dependent”, the “Effect on growth of E. coli MS 200-1 in glycerol medium” value (E. coli MS 200-1; glycerol NCE minimal medium) is reported as “not observed in glycerol” and the “Increase of choline uptake compared to vehicle” value ([5]; cells grown aerobically) is reported as 15 times. The “Increase of choline uptake compared to vehicle” value ([5]; cells grown anaerobically) was 1.2 times, the “Effect on cut gene cluster expression vs DMSO control” value [6] was “did not significantly change gene expression” and the IC50 [7] was 24000 nM.

Source: article PMC12977544, “Phenotypic high-throughput screening identifies modulators of gut microbial choline metabolism” (mBio, 2026)
